Measurements reported in patent US4642341A, “Carbapenem antibiotics” (priority 1985, dated 1987).
In brackets after ≈: the same amount, converted by molar mass. Read-outs that look alike come from different tables or passages of the source.

How the values were obtained:
[1] = tested on: E. coli A20341-1; assay: Minimum Inhibitory Concentration, tube dilution; format: cell-based; details: Escherichia coli, A203411, overnight 37° C.; table 6
[2] = tested on: K. pneumoniae A-9664; assay: Minimum Inhibitory Concentration, tube dilution; format: cell-based; details: Klebsiella pneumoniae, A9664, overnight 37° C.; table 6
[3] = tested on: P. vulgaris A21559; assay: Minimum Inhibitory Concentration, tube dilution; format: cell-based; details: Proteus vulgaris, A21559, overnight 37° C.; table 6
[4] = tested on: S. marcescens A20019; assay: Minimum Inhibitory Concentration, tube dilution; format: cell-based; details: Serratia marcescens, A20019, overnight 37° C.; table 6
[5] = tested on: P. aeruginosa A21213; assay: Minimum Inhibitory Concentration, tube dilution; format: cell-based; details: Pseudomonas aeruginosa, A21213, overnight 37° C.; table 6; read-out: MIC
[6] = tested on: B. fragilis A22862; assay: Minimum Inhibitory Concentration, tube dilution; format: cell-based; details: Bacteroides fragilis, overnight 37° C., table 6
[7] = tested on: B. fragilis A22696; assay: Minimum Inhibitory Concentration, tube dilution; format: cell-based; details: Bacteroides fragilis, overnight 37° C., table 6, read-out: MIC
[8] = tested on: P. aeruginosa A9843A; assay: animal or person; format: in vivo, mice; details: Pseudomonas aeruginosa, in Mus musculus, im, read-out: PD50 /treatment
Description: The PD50 (dose in mg/kg required to give protection to 50% of the infected mice) is indicated.

[9] = tested on: S. pneumoniae A-9585; assay: Minimum Inhibitory Concentration, tube dilution; format: cell-based; details: Streptococcus pneumoniae, A9585, overnight 37° C.; table 6
[10] = tested on: S. pyogenes A-9604; assay: Minimum Inhibitory Concentration, tube dilution; format: cell-based; details: Streptococcus pyogenes, A9604, overnight 37° C.; table 6
[11] = tested on: S. aureus A-9537; assay: Minimum Inhibitory Concentration, tube dilution; format: cell-based; details: table 6
[12] = tested on: S. aureus A15097 (Meth-res.); assay: Minimum Inhibitory Concentration, tube dilution; format: cell-based; details: Staphylococcus aureus, table 6
[13] = tested on: S. faecalis A20688; assay: Minimum Inhibitory Concentration, tube dilution; format: cell-based; details: Enterococcus faecalis, A20688, overnight 37° C.; table 6; read-out: MIC
[14] = tested on: K. pneumoniae A20468; assay: Minimum Inhibitory Concentration, tube dilution; format: cell-based; details: Klebsiella pneumoniae, A20468, overnight 37° C.; table 6; read-out: MIC
[15] = tested on: P. mirabilis A-9900; assay: Minimum Inhibitory Concentration, tube dilution; format: cell-based; details: Proteus mirabilis, A9900, overnight 37° C.; table 6
[16] = tested on: P. rettgeri A22424; assay: Minimum Inhibitory Concentration, tube dilution; format: cell-based; details: Providencia rettgeri, overnight 37° C., table 6, read-out: MIC
[17] = tested on: P. aeruginosa A-9843A; assay: Minimum Inhibitory Concentration, tube dilution; format: cell-based; details: Pseudomonas aeruginosa, A9843A, overnight 37° C.; table 6; read-out: MIC
[18] = tested on: E. cloacae A9659; assay: Minimum Inhibitory Concentration, tube dilution; format: cell-based; details: Enterobacter cloacae, A9659, overnight 37° C.; table 6; read-out: MIC
[19] = tested on: S. aureus A-9606 (Pen-res.); assay: Minimum Inhibitory Concentration, tube dilution; format: cell-based; details: Staphylococcus aureus, Pen-res; table 6
[20] = tested on: H. influenzae A-9833; assay: Minimum Inhibitory Concentration, tube dilution; format: cell-based; details: Haemophilus influenzae, A9833; overnight 37° C.; table 6; read-out: MIC
[21] = tested on: H. influenzae A21518; assay: Minimum Inhibitory Concentration, tube dilution; format: cell-based; details: Haemophilus influenzae, overnight 37° C., table 6
[22] = tested on: M. morganii A15153; assay: Minimum Inhibitory Concentration, tube dilution; format: cell-based; details: Morganella morganii, A15153, overnight 37° C.; table 6
[23] = tested on: P. mirabilis A9900; assay: Protective effect, intramuscular treatment of infected mice (table 7); format: in vivo; details: Proteus mirabilis, A9900, im; i.m. 1 and 3.5 hours post-infection; ~1×10^7 organisms i.p.; read-out: PD50 /treatment
Description: (§1) Drugs were administered i.m. 0 to 2 hours post-infection (A9606) or 1 and 3.5 hours post-infection for the others.

[24] = tested on: S. aureus A9606; assay: as above; format: in vivo; details: Staphylococcus aureus, A9606, im; i.m. 0 to 2 hours post-infection; ~1×10^9 organisms i.p.; read-out: PD50 /treatment
Description: as §1

[25] = tested on: P. aeruginosa A9843A; assay: animal or person; format: in vivo, mice; details: Pseudomonas aeruginosa, in Mus musculus, im, 3.5 h, read-out: PD50 /treatment
Description: as §1

[26] = Pharmacokinetic parameters in the mouse after intramuscular dose; format: in vivo, mice; details: im, 20 mg/kg
Description: Also shown is the urinary recovery in the mice.
Compounds were solubilized in 0.1 M phosphate buffer pH 7.

[27] = Half-life in phosphate buffer pH 7.4; format: physicochemical
Description: To a solution of p-nitrobenzyl 3-[2-(1-pyridinium)ethylthio)]-6α[1-(R)-hydroxyethyl]-7-oxo-1-azabicyclo(3.2.0)hept-2-ene-carboxylate diphenylphosphate (0.16 g, 0.22 mmol) in wet tetrahydrofuran (10mL) was added ether (10mL), potassium phosphate monobasic-sodium hydroxide buffer pH 7.4 (16 mL, 0.05 M) and 10% palladium on charcoal (0.16 g). The resulting mixture was hydrogenated under 40 psi for 1 h at 25° C. The two phases were separated and the organic phase was extracted with water (2×3 mL). The aqeuous solutions were combined, washed with ether (2×10 ml) and poured on top of a column (1.5×6.2 cm) pf μ-bondapak C-18 after the traces of organic solvents have been removed under vacuum. Elution of the column with water gave after lyophylization of the appropriate fractions a yellowish powder 0.062 g (84%), ir (KBr) .nu.max : 3700-3000 (OH), 1755 (C--O of β-lactam), 1630 (pyridinium), 1590 cm^-1 (carboxylate), ^1 Hmr (D2 O): 1.22 (3H, d, J=6.4 Hz, CH3 CHOH), 2.92 (d, J=9.1 Hz, H-4), 2.97 (d, J=9.1 Hz, H-4), 3.20 (dd, J=2.5 Hz, J=6.1 Hz, H-6), 3.44 (t, J=6.0 Hz, CH2 S), 3.93 (dd, J=9.1 Hz, J=2.5 Hz, H-5), 4.82 (t, J=6.0 Hz, CH2 N^+), 8.04 (m, Hm of pyridinium), 8.5 (m, Hp of pyridinium), 8.82 (dd, J=3.2. Hz, J=1.1 Hz, Ho of pyridinium), uv (H2 O) λ max : 259 (ε5800), 296 (ε7030) mμ, .tau.1/2 =13.5 h (measured at a concentration of 10^-4 M in phosphate buffer pH 7.4 at 36.8° C.).

[28] = tested on: E. coli A15119; assay: Minimum Inhibitory Concentration, tube dilution; format: cell-based; details: Escherichia coli, A15119, overnight 37° C.; table 6
[29] = Staphylococcus aureus, A9537, 50% serum, read-out: MIC
[30] = Staphylococcus aureus, A9537, overnight 37° C., read-out: MIC

Structure (SMILES): CC(C[n+]1ccccc1)SC1=C(C(=O)[O-])N2C(=O)[C@H]([C@@H](C)O)[C@H]2C1 (single isomer, unassigned) [Ex. 15 (cmp. "A")]
- MIC [1]: 0.03 µg/mL (≈ 0.0861 µM)
- MIC [2]: 0.06 µg/mL (≈ 0.172 µM)
- MIC [3]: 0.03 µg/mL (≈ 0.0861 µM)
- MIC [4]: 0.06 µg/mL (≈ 0.172 µM)
- MIC [5]: 1 µg/mL (≈ 2.87 µM)
- MIC [6]: 0.13 µg/mL (≈ 0.373 µM)
- MIC [7]: 0.25 µg/mL (≈ 0.718 µM)
- ED50 [8]: 3.1 mg/kg

Structure (SMILES): C[C@@H](O)[C@H]1C(=O)N2C(C(=O)[O-])=C(SC3CCCCC3[n+]3ccccc3)C[C@H]12 (single isomer, unassigned) [Ex. 16 (cmp. "B"), (5R,6S) 3-[2-[(R or S)-(1-pyridinium)]-1-(R or S)-cyclohexylthio]-6-[1-(R)-hydroxyethyl]-7-oxo-1-azabicyclo(3.2.0)hept-2-ene-2-carboxylate]
- MIC [9]: 0.002 µg/mL (≈ 0.00515 µM)
- MIC [10]: 0.004 µg/mL (≈ 0.0103 µM)
- MIC ([11]; overnight 37° C.): 0.013 µg/mL (≈ 0.0335 µM)
- MIC [12]: 0.5 µg/mL (≈ 1.29 µM)
- MIC [13]: 8 µg/mL (≈ 20.6 µM)
- MIC [1]: 0.06 µg/mL (≈ 0.154 µM)
- MIC [2]: 0.13 µg/mL (≈ 0.335 µM)
- MIC [14]: 0.5 µg/mL (≈ 1.29 µM)
- MIC [15]: 0.13 µg/mL (≈ 0.335 µM)
- MIC [16]: 4 µg/mL (≈ 10.3 µM)
- MIC [17]: 32 µg/mL (≈ 82.4 µM)
- MIC [18]: 0.5 µg/mL (≈ 1.29 µM)

Structure (SMILES): Cc1cc[n+](CCSC2=C(C(=O)[O-])N3C(=O)[C@H]([C@@H](C)O)[C@H]3C2)cc1 [Example 8, 3-[2-(1-(4-methylpyridinium))ethylthio]-6α-[1(R)-hydroxyethyl]-7-oxo-1-azabicyclo(3.2.0)hept-2-ene-2-carboxylate]
- MIC [9]: 0.03 µg/mL (≈ 0.0861 µM)
- MIC [10]: 0.03 µg/mL (≈ 0.0861 µM)
- MIC [11, 29]: 0.06 µg/mL (≈ 0.172 µM)
- MIC [11, 30]: 0.03 µg/mL (≈ 0.0861 µM)
- MIC [19]: 0.06 µg/mL (≈ 0.172 µM)
- MIC [12]: > 63 µg/mL
- MIC [3]: 0.06 µg/mL (≈ 0.172 µM)
- MIC [17]: 8 µg/mL (≈ 23 µM)
- MIC [20]: > 32 µg/mL
- MIC [21]: > 32 µg/mL
- MIC [6]: 0.06 µg/mL (≈ 0.172 µM)
- MIC [22]: 0.03 µg/mL (≈ 0.0861 µM)
- ED50 [23]: ~38 mg/kg
- ED50 [24]: 0.8 mg/kg
- ED50 [25]: 0.9 mg/kg
- AUC ([26]; blood): 4600 ng·h/mL
- Cmax ([26]; blood): 10600 ng/mL
- half-life ([26]; blood, read-out: T1/2 (blood)): 8.2 min
- dose excreted ([26]; urine, read-out: Urine Recovery): 47 ± 7%
- half-life at 100 µM ([27]; phosphate buffer, pH 7.4, τ1/2 (half-life)): 12.8 h

Structure (SMILES): CSc1n(C)cc[n+]1CCSC1=C(C(=O)[O-])N2C(=O)[C@H]([C@@H](C)O)[C@H]2C1 [Example 13, (5R, 6S)-3-[2-(2-methylthio-3-methylimidazolio)ethyl-thio]-6-[1-(R)-hydroxyethyl]-7-oxo-1-azabicyclo[3.2.0]hept-2-ene-2-carboxylate]
- MIC [9]: 0.001 µg/mL (≈ 0.00261 µM)
- MIC [10]: 0.002 µg/mL (≈ 0.00522 µM)
- MIC [11, 29]: 0.03 µg/mL (≈ 0.0782 µM)
- MIC [11, 30]: 0.008 µg/mL (≈ 0.0209 µM)
- MIC [19]: 0.03 µg/mL (≈ 0.0782 µM)
- MIC [13]: 0.5 µg/mL (≈ 1.3 µM)
- MIC [28]: 0.03 µg/mL (≈ 0.0782 µM)
- MIC [1]: 0.03 µg/mL (≈ 0.0782 µM)
- MIC [15]: 0.03 µg/mL (≈ 0.0782 µM)
- MIC [3]: 0.03 µg/mL (≈ 0.0782 µM)
- MIC [4]: 0.06 µg/mL (≈ 0.156 µM)
- MIC [17]: 32 µg/mL (≈ 83.4 µM)
- MIC [5]: 2 µg/mL (≈ 5.22 µM)

Structure (SMILES): CSc1ccc[n+](CCSC2=C(C(=O)[O-])N3C(=O)[C@H]([C@@H](C)O)[C@H]3C2)c1 [Example 11, (5R,6S)-3-[[2-(3-methylthiopyridinio)ethyl]thio]-6-[1-(R)-hydroxyethyl]-7-oxo-1-azabicyclo[3.2.0]hept-2-ene2-carboxylate]
- MIC [9]: 0.001 µg/mL (≈ 0.00263 µM)
- MIC [10]: 0.001 µg/mL (≈ 0.00263 µM)
- MIC [11, 29]: 0.03 µg/mL (≈ 0.0788 µM)
- MIC [11, 30]: 0.004 µg/mL (≈ 0.0105 µM)
- MIC [19]: 0.008 µg/mL (≈ 0.021 µM)
- MIC [13]: 0.25 µg/mL (≈ 0.657 µM)
- MIC [28]: 0.03 µg/mL (≈ 0.0788 µM)
- MIC [1]: 0.03 µg/mL (≈ 0.0788 µM)
- MIC [2]: 0.06 µg/mL (≈ 0.158 µM)
- MIC [3]: 0.03 µg/mL (≈ 0.0788 µM)
- MIC [16]: 0.25 µg/mL (≈ 0.657 µM)
- MIC [4]: 0.06 µg/mL (≈ 0.158 µM)
- MIC [17]: 4 µg/mL (≈ 10.5 µM)
- MIC [5]: 1 µg/mL (≈ 2.63 µM)
- MIC [6]: 0.06 µg/mL (≈ 0.158 µM)
- MIC [18]: 0.06 µg/mL (≈ 0.158 µM)
- ED50 [8]: 2.4 mg/kg
- half-life ([27]; phosphate buffer, pH 7.4, 36.8° C., read-out: t1/2 (half-life) (converted)): 20 h

Structure (SMILES): COc1ccc[n+](CCSC2=C(C(=O)[O-])N3C(=O)[C@H]([C@@H](C)O)[C@H]3C2)c1 [Example 10, 3-[2-(3-methoxy-1-pyridinium)ethylthio]-6α-[1'-(R)-hydroxyethyl]-7-oxo-1-azabicyclo(3.2.0)-hept-2-ene-2-carboxylate]
- MIC [9]: 0.002 µg/mL (≈ 0.00549 µM)
- MIC [10]: 0.002 µg/mL (≈ 0.00549 µM)
- MIC [11, 29]: 0.06 µg/mL (≈ 0.165 µM)
- MIC [11, 30]: 0.008 µg/mL (≈ 0.022 µM)
- MIC [19]: 0.016 µg/mL (≈ 0.0439 µM)
- MIC [28]: 0.03 µg/mL (≈ 0.0823 µM)
- MIC [2]: 0.06 µg/mL (≈ 0.165 µM)
- MIC [3]: 0.06 µg/mL (≈ 0.165 µM)
- MIC [17]: 4 µg/mL (≈ 11 µM)
- MIC [5]: 1 µg/mL (≈ 2.74 µM)
- ED50 [8]: 1.8 mg/kg
- half-life ([27]; 0.1 m phosphate buffer, pH 7.4, T1/2 (half-life)): 20 h
